In brackets after ≈: the same amount, converted by molar mass. Several values for one entry are separate records, joined by “and”; a condition that tells them apart may be missing. Equal entries are not always repeated. Where two headings read alike, the source gives them in different places.
What was measured:
PANC 1 cell line = assay: SRB cytotoxicity assay, PANC 1 pancreatic cancer cell line; details: Homo sapiens, PANC-1, 72 h, read-out: Cytotoxicity IC50 value, PANC 1 cell line
K562 cell line = assay: SRB cytotoxicity assay, K562 leukaemia cell line; details: Homo sapiens, K562, 72 h
MCF7 cell line = assay: SRB cytotoxicity assay, MCF7 breast cancer cell line; details: Homo sapiens, MCF7, 72 h, read-out: Cytotoxicity IC50 value, MCF7 cell line
HELA cell line = assay: SRB cytotoxicity assay, HELA cervical cancer cell line; details: Homo sapiens, HeLa, 72 h
PDL Fibroblasts = assay: SRB cytotoxicity on normal periodontal ligament fibroblasts, selective cytotoxicity; type: cell-based, Human; details: for IC50: Homo sapiens, Fibroblast, normal fibroblasts, SRB, 72 h, mean ± SD; for Selectivity index SI (A375.S2): IC50 on PDL fibroblasts divided by IC50 on A375.S2; for Selectivity index SI (K562): IC50 on PDL fibroblasts divided by IC50 on K562
In short: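 Human periodontal ligament fibroblasts, a primary normal culture, tested by SRB colorimetric assay for cell viability. Selectivity ratio = IC50 on normal fibroblasts divided by IC50 on the pathological cell line.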

A549 cell line = assay: SRB cytotoxicity assay, A549 lung cancer cell line; details: Homo sapiens, A549, 72 h, read-out: Cytotoxicity IC50 value, A549 cell line
A375.S2 cell line = assay: SRB cytotoxicity assay, A375.S2 melanoma cell line; details: Homo sapiens, A375-S2, 72 h, read-out: Cytotoxicity IC50 value, A375.S2 cell line
[1] = system: Staphylococcus aureus (S. aureus) ATCC 6538; assay: Quantitative antimicrobial assessment (MIC) against S. aureus; type: cell-based; details: for MIC potency compared with ciprofloxacin, S. aureus: in words; for Antibacterial activity (in words): esters vs free acid, Gram positive strain context; for MIC: Staphylococcus aureus, ATCC6538, Gram positive, ATCC 6538
T47D cell line = assay: cells; details: Homo sapiens, T47D, 72 h, read-out: Cytotoxicity IC50 value, T47D cell line
In short: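 Cell lines grown in DMEM with FBS, HEPES, L-glutamine and antibiotics; cytotoxicity read by sulforhodamine B colorimetric assay giving IC50. Primary human periodontal ligament fibroblasts serve as normal cells; selectivity ratio = fibroblast IC50 divided by cancer-line IC50.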

[2] = system: Candida albicans (C. albicans) ATCC 1023; assay: Quantitative antimycotic assessment (MIC) against C. albicans; type: cell-based; details: in words
SW620 = system: SW620; set-up: method as in earlier work; details: colon cancer cells, Figure 1; ref Arabiyat et al. 2016a,b; 2017; Alabsi et al. 2018; Jumah 2018; AlShahrabi et al., 2020; read-out: IC50 against SW620; cited from earlier work
HCT116 = system: HCT116; set-up: method as in earlier work; details: colon cancer cells, Figure 1; ref Arabiyat et al. 2016a,b; 2017; Alabsi et al. 2018; Jumah 2018; AlShahrabi et al., 2020; read-out: IC50 against HCT116; cited from earlier work
[3] = read-out: Cytotoxicity IC50 value, K562 cell line, SRB, 72 h, 0.1-200 μg/mL range, mean ± SD, value in brackets
[4] = read-out: Cytotoxicity IC50 value, K562 cell line, SRB, 72 h, 0.1-200 μg/mL range, mean ± SD, NI = lack of cytotoxicity in range
[5] = read-out: Cytotoxicity IC50 value, HELA cell line, SRB, 72 h, 0.1-200 μg/mL range, mean ± SD, value in brackets
[6] = read-out: Cytotoxicity IC50 value, HELA cell line, SRB, 72 h, 0.1-200 μg/mL range, mean ± SD, NI = lack of cytotoxicity in range
[7] = 0.1-200 μg/mL range, NI = lack of cytotoxicity in range

Structure (SMILES) | IC50 (PANC 1 cell line) | IC50 (K562 cell line; [3]) | IC50 (K562 cell line; [4]) | IC50 (MCF7 cell line) | IC50 (HELA cell line; [5]) | IC50 (HELA cell line; [6]) | IC50 (PDL Fibroblasts; [7]) | IC50 (PDL Fibroblasts; value in brackets) | Selectivity index SI (MCF7) (PDL Fibroblasts; IC50 on PDL fibroblasts divided by IC50 on MCF7) | IC50 (A549 cell line) | IC50 (A375.S2 cell line) | MIC potency compared with ciprofloxacin, S. aureus [1] | IC50 (T47D cell line) | Antibacterial activity (in words) [1] | Selectivity index SI (A375.S2) (PDL Fibroblasts) | Antimycotic MIC potency compared with fluconazole, C. albicans [2] | Selectivity index SI (K562) (PDL Fibroblasts) | MIC [1] | IC50 (SW620) | IC50 (HCT116)
CCn1cc(C(=O)O)c(=O)c2cc(F)c3c(nnn3-c3ccc(OC)cc3OC)c21 [13c, 3-(2,4-dimethoxy-phenyl)-9-ethyl-4-fluoro-6-oxo-6,9-dihydro-3H-[1,2,3] triazolo[4,5-h]quinoline-7-carboxylic acid] | 138 µM and 56.6 µg/mL | 28.2 µg/mL | 68.7 ± 8.04 µM | 4.15 µM and 1.71 µg/mL | 179 µg/mL | 435 ± 71.7 µM | 172 ± 17.8 µM | 70.6 µg/mL | 41.35 | 662 µM and 272 µg/mL | 487 µM and 201 µg/mL | significantly more potent than ciprofloxacin | 182 µM and 74.7 µg/mL | – | – | – | – | – | – | –
O=C(O)c1cn(C2CC2)c2c([N+](=O)[O-])c(Cl)c(F)cc2c1=O [1A] | 59.1 µM and 21 µg/mL | – | > 200 µg/mL | 3.32 µM and 1.17 µg/mL | 7.02 µg/mL | 19.8 ± 1.48 µM | – | – | – | 57.9 µM and 20.4 µg/mL | 10 µM and 3.52 µg/mL | – | > 200 µg/mL | incomparably appreciable activity | – | – | – | – | – | –
CCc1ccc(-n2nnc3c4c(cc(F)c32)c(=O)c(C(=O)O)cn4C2CC2)cc1 [5d, 9-cyclopropyl-4-fluoro-3-(4-ethyl-phenyl)-6-oxo-6,9-dihydro-3H-[1,2,3] triazolo[4,5-h]quinoline-7-carboxylic acid] | 163 µM and 63.8 µg/mL | 63.8 µg/mL | 163 ± 22.6 µM | 177 µM and 69.1 µg/mL | 447 µg/mL | 1140 ± 82.4 µM | 165 ± 16.1 µM | 64.5 µg/mL | – | 161 µM and 63 µg/mL | 124 µM and 48.5 µg/mL | significantly more potent than ciprofloxacin | 372 µM and 146 µg/mL | – | 1.33 | – | – | – | – | –
CCCCc1ccc(Nc2c(F)cc3c(=O)c(C(=O)O)cn(C4CC4)c3c2N)cc1 [4e, 8-Amino-1-cyclopropyl-6-fluoro-7-(4-butyl-phenylamino)-4-oxo-1,4-dihydro-quinoline-3-carboxylic acid] | 20.8 µM and 8.5 µg/mL | 0.002 µg/mL | 0.005 ± 0.0009 µM | 107 µM and 44 µg/mL | 27.6 µg/mL | 67.3 ± 6.64 µM | 43 ± 3.02 µM | 18.9 µg/mL | – | 25.1 µM and 10.3 µg/mL | 79.2 µM and 32.4 µg/mL | significantly more potent than ciprofloxacin | 44.1 µM and 18 µg/mL | – | – | more potent than antimycotic flucanozole | 8592 | 0.32 µM (≈ 0.131 µg/mL) | – | –
CCn1cc(C(=O)O)c(=O)c2cc(F)c(Nc3ccc(Cl)cc3)c(N)c21 [A (X =Cl)] | – | – | – | – | – | – | – | – | – | – | – | – | – | – | – | – | – | – | 11.7 µM | 3.5 µM
COc1cccc(Nc2c(F)cc3c(=O)c(C(=O)O)cn(C4CC4)c3c2N)c1 [4b, 8-amino-1-cyclopropyl-6-fluoro-7-(3-methoxy-phenylamino)-4-oxo-1,4-dihydro-quinoline-3-carboxylic acid] | 155 µM and 59.2 µg/mL | 6.5 µg/mL | 17 ± 2.57 µM | 177 µM and 67.7 µg/mL | – | – | 276 ± 20.2 µM | 106 µg/mL | – | 229 µM and 87.6 µg/mL | 120 µM and 46 µg/mL | – | 149 µM and 57.2 µg/mL | – | – | – | 16.25 | 0.024 µM (≈ 0.0092 µg/mL) | – | –
O=C(O)c1cn(C2CC2)c2cc(N3CCNCC3)c(F)cc2c1=O [ciprofloxacin, reference compound] | – | – | – | – | – | – | – | – | – | – | – | – | – | – | – | – | – | 1.12 µM (≈ 0.371 µg/mL) | – | –
COc1ccccc1-n1nnc2c3c(cc(F)c21)c(=O)c(C(=O)O)cn3C1CC1 [5a, 9-cyclopropyl-4-fluoro-3-(2-methoxy-phenyl)-6-oxo-6,9-dihydro-3H-[1,2, and 3] triazolo [4,5-h] quinoline-7-carboxylic acid] | 201 µM and 78.9 µg/mL | 16.4 µg/mL | 41.7 ± 6.86 µM | 44.3 µM and 17.4 µg/mL | 124 µg/mL | 299 ± 11.4 µM | 279 ± 27.4 µM | 110 µg/mL | – | > 200 µg/mL | 171 µM and 67.2 µg/mL | significantly more potent than ciprofloxacin | 42.1 µM and 16.6 µg/mL | – | – | – | 6.71 | – | – | –
CCOC(=O)c1cn(C2CC2)c2c([N+](=O)[O-])c(Nc3ccc(F)cc3)c(F)cc2c1=O [2H] | 485 µM and 208 µg/mL | 346 µg/mL | 806 ± 59.2 µM | > 200 µg/mL | 647 µg/mL | 1510 ± 68.2 µM | 560 ± 87.5 µM | 231 µg/mL | – | 447 µM and 200 µg/mL | 271 µM and 121 µg/mL | – | 833 µM and 344 µg/mL | lacked antibacterial activity | 2.07 | – | – | – | – | –
CCCCc1ccc(-n2nnc3c4c(cc(F)c32)c(=O)c(C(=O)O)cn4C2CC2)cc1 [5e, 9-cyclopropyl-4-fluoro-3-(4-butyl-phenyl)-6-oxo-6,9-dihydro-3H-[1,2,3] triazolo[4,5-h]quinoline-7-carboxylic acid] | 87.1 µM and 36.5 µg/mL | 20.6 µg/mL | 49 ± 7.2 µM | 105 µM and 44.2 µg/mL | 153 µg/mL | 364 ± 22.8 µM | 72.6 ± 3.56 µM | 30.4 µg/mL | – | 181 µM and 76 µg/mL | 103 µM and 43.1 µg/mL | – | 97.6 µM and 41 µg/mL | – | – | more potent than antimycotic flucanozole | 1.48 | – | – | –
COc1ccc(Nc2c(F)cc3c(=O)c(C(=O)O)cn(C4CC4)c3c2N)c(OC)c1 [4g, 8-amino-1-cyclopropyl-7-(2,4-dimethoxy-phenylamino)-6-fluoro-4-oxo-1,4-dihydro-quinoline-3-carboxylic acid] | 310 µM and 128 µg/mL | – | > 200 µg/mL | 317 µM and 137 µg/mL | 120 µg/mL | 277 ± 39 µM | > 200 µg/mL | – | – | 709 µM and 306 µg/mL | 807 µM and 348 µg/mL | significantly more potent than ciprofloxacin | 1.01 mM and 435 µg/mL | – | – | – | – | 0.004 µM (≈ 0.00165 µg/mL) | – | –

From publication PMC8325119, “A Novel Class of Functionalized Synthetic Fluoroquinolones with Dual Antiproliferative - Antimicrobial Capacities” (Asian Pacific Journal of Cancer Prevention : APJCP, 2021)
